These results are taken from patent US6432446B1, “Non-arrhythmogenic metabolite of oxybutynin” (Bridge Pharma, Inc., priority 2000, dated 2002).

In data set [1] the test system is Male guinea pigs. Kind of data set: Cardiac side effects: QTc interval of the EKG in anesthetized guinea pigs. Particulars: intravenous infusion over 30 min. Format: in vivo, guinea pig. The procedure: Male guinea pigs (450-600 g) are anesthetized with freshly prepared dialurethane sodium. The jugular vein is catheterized for iv administration of test drugs and the trachea is exposed and cannulated. Subdermal electrodes are positioned for Lead II electrocardiogram recording, monitored on a Grass Polygraph recorder, set at a paper speed of 50 nmmsec. The animals are allowed to stabilize for 30 minute after completion of surgery, and three baseline EKG recordings are then made at 10-minute intervals. The animals are then given a dose of the test compound or vehicle as an intravenous inflision over 30 min. EKG recordings are used to determine QT intervals and heart rates. To compensate for variations in heart rates, QTc intervals are calculated from QT- and RR-intervals as known to those skilled in the art. Prolongation of QTc is indicative of a prolonged action potential, caused by an inhibition of the delayed rectifier potassium channel. Prolongation of QTc is the known cause of Torsades de Pointes ventricular fibrillation by drugs such as terfenadine and astemizole (now withdrawn from the market).

Data set [2] has as its system patients with conditions characterized by involuntary bladder contractions. To be noted: clinical studies; cited from earlier work.
The conditions of data set [3]: isomers of racemic oxybutynin; cited from earlier work.
Data set [4] deals with Strips of intestinal smooth muscle tissue. As for the experimental part: 2. Functional Characterization of Antimuscarinic/Antispasmodic Activity.
Strips of intestinal smooth muscle tissue are removed from the body of male Hartley guinea pigs weighing 400-600 g. The strips are suspended in an oxygenated buffer of the following composition, in mM: NaCl, 133; KCl, 4.7; CaCl2, 2.5; MgSO4, 0.6; NaH2PO4, 1.3; NaHCO3, 16.3; and glucose, 7.7, or a similar balanced physiological solution. They are maintained at constant temperature. Contractions are recorded with isometric transducers (Model FT-10) on an ink-writing polygraph.
In each experiment up to seven strips are removed from a single animal, suspended in individual tissue chambers and allowed to equilibrate with the bathing solution for one hour before proceeding with the experiment.
In order to assess the viability of each tissue and to serve as a frame of reference, contractions of each strip of tissue are recorded initially in response to exposure to a tissue medium in which the NaCl was replaced by KCl to yield a concentration of 137.7 mM KCl in the medium. […] Then, leaving one strip untreated and/or one strip exposed to the test solution to serve as control tissue(s), the remaining strips each are exposed for one hour to one concentration of an antagonist. Finally, the responses to increasing concentrations of carbachol followed by exposure to 137.7 mM KCl are recorded a second time. To determine whether antagonists decrease the peak response to agonists, the peak tension developed by each strip during the second set of determinations is expressed as a percent of the peak tension developed during the first concentration-effect determination. Then, for each antagonist the resultant data are analyzed using standard statistical methodology.

The conditions of data set [5]: drugs withdrawn from the market because of this side effect; cited from earlier work.
Data set [6] can be described thus: Risk for torsades des pointes of drugs combined with oxybutynin.
For data set [7], the system named is human recombinant muscarinic receptor subtypes. Kind of data set: Ligand binding studies: muscarinic receptors. Particulars: compared with the des-ethyl metabolite. The procedure: 1. Ligand Binding Studies: Muscarinic Receptors.
The experiments are carried out on membranes prepared from SF9 cells infected with baculovirus to express human recombinant muscarinic receptor subtypes. After incubation with the test article and the proper radioligand and washing, bound radioactivity is determnined with a liquid scintillation counter, using a commercial scintillation cocktail. The specific radioligand binding to each receptor is defined as the difference between total binding and nonspecific binding determined in the presence of an excess of unlabelled ligand. IC50 values (concentrations required to inhibit 50% of specific binding) are determined by non linear regression analysis of the competition curves. These parameters are obtained by curve fitting using Sigmaplot software.

For data set [8], the system named is benzothiazepine receptors. Description: Affinity for benzothiazepine receptors. Format: binding. Particulars: compared with the des-ethyl metabolite.

For `CCNCC#CCOC(=O)C(O)(c1ccccc1)C1CCCCC1` (racemic) [desethyl metabolite of oxybutynin, 4-ethylamino-2-butynyl cyclohexyl-phenylglycolate], the “prolongation of the QTc-interval of the EKG” value in data set [1] was “free from said cardiac side effect”.

On to `CCN(CC)CC#CCOC(=O)C(O)(c1ccccc1)C1CCCCC1` (racemic) [oxybutynin, 4-diethylamino-2-butynyl cyclohexylphenylglycolate], for which the “prolongation of the QTc-interval of the EKG” value in data set [1] is on record as “causes a prolongation of the QTc-interval”. In data set [2], the bladder capacity result is on record as “increases bladder capacity”, the “frequency of involuntary contractions of the detrusor muscle” value is “diminishes the frequency of involuntary contractions of the detrusor muscle” and the “initial desire to void” value is recorded as “delays the initial desire to void”.

With `CCN(CC)CC#CCOC(=O)[C@](O)(c1ccccc1)C1CCCCC1` (single isomer, unassigned) [R(−)-isomer, R(−)-oxybutynin], in data set [1], the “prolongation of the QTc-interval of the EKG” value was “cause a prolongation of the QTc-interval”. In data set [3], the anticholinergic activity result was “practically all of the anticholinergic activity of OXY resides in the R(−)-isomer”.

As for `CCNCC#CCOC(=O)[C@](O)(c1ccccc1)C1CCCCC1` (single isomer, unassigned) [R-isomer of the des-ethyl metabolite of oxybutynin], the “antimuscarinic / anticholinergic activity” value in data set [4] is given as “potent antimuscarinic agent”.

Regarding `CCN(CC)CC#CCOC(=O)[C@@](O)(c1ccccc1)C1CCCCC1` (single isomer, unassigned) [S(+)-isomer, S(+)-oxybutynin], the “prolongation of the QTc-interval of the EKG” value in data set [1] is on record as “cause a prolongation of the QTc-interval”. For the same molecule, the spasmolytic activity entry in data set [3] is on record as “direct spasmolytic activity”.

On to `CCNCC#CCOC(=O)[C@@](O)(c1ccccc1)C1CCCCC1` (single isomer, unassigned) [S-isomer of the des-ethyl metabolite of oxybutynin], for which, in data set [4], the “antimuscarinic / anticholinergic activity” value is on record as “weak anticholinergic activity” and the spasmolytic activity result is reported as “spasmolytic agent”.

`COc1ccc(CCN2CCC(Nc3nc4ccccc4n3Cc3ccc(F)cc3)CC2)cc1` [astemizole]: the “prolongation of QTc” value in data set [5] is “found to cause prolongation of QTc”.

With `CC(=O)N1CCN(c2ccc(OCC3COC(Cn4ccnc4)(c4ccc(Cl)cc4Cl)O3)cc2)CC1` (stereo not drawn) [ketoconazole], the “risk for torsades des pointes” value in data set [6] is given as “further increase the risk for torsades des pointes”.

With `CC(CC(c1ccccc1)c1ccccc1)NC(C)(C)C` (stereo not drawn) [terodiline], in data set [5], the “prolongation of QTc” value is reported as “found to cause prolongation of QTc”.

Consider “didesethyloxybutynin [didesethyl metabolite]”, for which the “prolongation of the QTc-interval of the EKG” value in data set [1] was “does not prolong the QTc interval”. In addition, the “affinity for muscarinic receptors” value in data set [7] is “somewhat lower affinity”. Besides, in data set [8], the “affinity for benzothiazepine receptors” value was “somewhat lower affinity”.
